The values below come from patent publication US20230129095A1, “PEPTIDE INHIBITORS OF INTERLEUKIN-23 RECEPTOR AND THEIR USE TO TREAT INFLAMMATORY DISEASES” (Protagonist Therapeutics, Inc., priority 2020, published 2023).

Data set [1] in a line: Stability in human fecal homogenate (anaerobic). The format is in vitro ADME. As to conditions: pH 6.8, 20% human fecal homogenate, 37° C., up to 24 hours, read-out: t1/2: Human Feces anaerobic. How it is done:
(§1) Studies were carried out in human or cynomolgus monkey fecal homogenate to evaluate gastrointestinal stability of the peptide inhibitors of the present invention.
(§2) Fecal homogenate ([…]) was prepared by adding 4 mL of growth medium (1 liter contains 2 g peptone water powder, 2 g yeast extract, 0.1 g NaCl, 0.04 g KH2PO4, 0.01 g CaCl2.6H2O, 0.01 g MgSO4.7H2O, 2 mL Tween 80, 0.5 g bile salts, 0.5 g L-cysteine HCl, 2 g NaHCO3, and 10 μL Vitamin K, pH adjusted to 6.8, and sterilized by filtration through a 0.22 μm filter) to every gram of feces (pooled freshly collected human or cynomolgus monkey feces). The suspension was vortexed to break up large clumps, and homogenized using a bead mill homogenizer. Centrifuged the homogenate at 2800×g for 15 min. The supernatant is taken out and used for incubations. DMSO stocks (10 mM) were first prepared for the test compounds. Incubations were performed in an anaerobic chamber conditioned at 37° C. Aliquots of the DMSO solutions were dosed into 1.0 mL aliquots of 20% fecal homogenate, which are pre-warmed to 37° C. The final test compound concentration was 20 μM. At each timepoint (0, 20 min, 1, 3, 6, or 24 hours), 100 μL aliquot of each incubation mixture is taken out and added to separate tubes containing 300 μL of 50% acetonitrile/50% methanol and an internal standard to terminate the reaction. Samples were taken out of the anaerobic chamber and stored at 4° C. until the end of the experiment. After the final timepoint is sampled, the tubes were mixed and then centrifuged at 3,000 rpm for 10 minutes. Aliquots of the supernatant were removed, diluted 1:1 into distilled water containing 0.1% formic acid, and analyzed by LC/MS/MS. Percent remaining at each timepoint was calculated based on the peak area response ratio of test to compound to internal standard. Time 0 was set to 100%, and all later timepoints were calculated relative to time 0. Half-lives were calculated by fitting to a first-order exponential decay equation using Graphpad or Excel.

A short description of data set [2]: Stability in cynomolgus monkey fecal homogenate (anaerobic). The format is in vitro ADME. As to conditions: pH 6.8, 20% cynomolgus monkey fecal homogenate, 37° C., up to 24 hours, read-out: t1/2: Monkey Feces anaerobic (converted). Here is the method:
as §1, §2

Data set [3] in a line: Stability in rat plasma. The format is in vitro ADME. The conditions noted are these: both sexes, pooled, SD rat plasma, EDTA, 37° C., up to 24 hours, read-out: t1/2: Rat Plasma EDTA. How it is done:
Peptides of interest (20 μM) were incubated with pre-warmed rat plasma (SD rat, mixed gender pooled, EDTA, filtered through 0.22 μm, BioreclamationIVT) at 37° C. Aliquots were taken at various time points up to 24 hours (e.g. 0, 0.25, 1, 3, 6 and 24 hr), and immediately quenched with 4 volumes of organic solvent (acetonitrile/methanol (1:1) and 0.1% formic acid, containing 1 μM internal standard). Quenched samples were stored at 4° C. until the end of the experiment and centrifuged at 4,000 rpm for 10 minutes. The supernatant were diluted 1:1 with deionized water and analyzed using LC-MS. Percentage remaining at each time point was calculated based on the peak area ratio (analyte over internal standard) relative to the initial level at time zero. Half-lives were calculated by fitting to a first-order exponential decay equation using GraphPad.

A short description of data set [4]: Stability in simulated intestinal fluid (SIF). The format is in vitro ADME. The conditions noted are these: 37° C.; for SIF t1/2: 100 fold dilution of standard SIF concentration, 20 μM. How it is done:
Studies were carried out in simulated intestinal fluid (SIF) and simulated gastric fluid (SGF) to evaluate gastric stability of the peptide inhibitors of the present invention. In addition, studies were carried out to assess redox stability of the peptide inhibitors of the present invention.
SIF was prepared by adding 6.8 g of monobasic potassium phosphate and 10.0 g of pancreatin to 1.0 L of water. After dissolution, the pH was adjusted to 6.8 using NaOH. DMSO stocks (2 mM) were first prepared for the test compounds. Aliquots of the DMSO solutions were dosed into 6 individual tubes, each containing 0.5 mL of SIF, which is pre-warmed to 37° C. The final test compound concentration was 20 μM. The vials were kept in a benchtop Thermomixer® for the duration of the experiment. At each timepoint (0, 5, 10, 20, 40, 60, or 360 minutes or 24 hours), 1.0 mL of acetonitrile containing 1% formic acid was added to one vial to terminate the reaction. Samples were stored at 4° C. until the end of the experiment. After the final timepoint is sampled, the tubes were mixed and then centrifuged at 3,000 rpm for 10 minutes. Aliquots of the supernatant were removed, diluted 1:1 into distilled water containing internal standard, and analyzed by LCMS/MS. Percent remaining at each timepoint was calculated based on the peak area response ratio of test to compound to internal standard. Time 0 was set to 100%, and all later timepoints were calculated relative to time 0. Half-lives were calculated by fitting to a first-order exponential decay equation using Graphpad.

For data set [5], the system named is Natural killer (NK) cells. The format is cell-based, human. The text has this: Where not shown, data was not yet determined.
In data set [6] the target is T1, interleukin-23 receptor (IL-23R), human (human, UniProt Q5VWK5 24-629).
T1 sequence (looked up): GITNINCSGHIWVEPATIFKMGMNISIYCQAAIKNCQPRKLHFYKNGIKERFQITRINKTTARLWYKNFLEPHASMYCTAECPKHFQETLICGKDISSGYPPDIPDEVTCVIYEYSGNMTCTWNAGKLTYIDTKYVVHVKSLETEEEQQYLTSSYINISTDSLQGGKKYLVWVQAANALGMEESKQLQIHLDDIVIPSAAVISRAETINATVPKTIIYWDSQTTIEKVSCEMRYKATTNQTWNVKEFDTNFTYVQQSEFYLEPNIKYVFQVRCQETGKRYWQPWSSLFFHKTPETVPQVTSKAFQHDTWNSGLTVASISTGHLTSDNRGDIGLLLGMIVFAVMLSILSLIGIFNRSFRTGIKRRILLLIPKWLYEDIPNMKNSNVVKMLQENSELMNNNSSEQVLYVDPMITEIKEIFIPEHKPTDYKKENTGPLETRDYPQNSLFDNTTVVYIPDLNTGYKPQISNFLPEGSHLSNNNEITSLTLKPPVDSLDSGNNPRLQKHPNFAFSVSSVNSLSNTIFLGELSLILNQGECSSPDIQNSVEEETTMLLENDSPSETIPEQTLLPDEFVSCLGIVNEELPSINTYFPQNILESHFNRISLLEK
Briefly: cell-based or functional assay.

One may read the IC50 as the concentration at which inhibition is half-maximal.

*1 amine or outer side, *2 acyl side, *3 side chain or, on linkers, in order; H or OH if unused. Where a SMILES comes first, the peptide text is derived from it. Bridges are numbered along the chain shown (N, C = ends). [ ]: non-standard residue; d: D form. X6 = O=C([C@H](Cc1c[nH]c2c(-c3cccc(OC(F)(F)F)c3)cccc12)N[*:1])[*:2]; X1 = O=C([C@H](Cc1c[nH]c2c(-c3cccc(C(F)(F)F)c3)cccc12)N[*:1])[*:2]; X8 = COc1cccc(-c2cccc3c(C[C@H](N[*:1])C(=O)[*:2])c[nH]c23)c1; Trp(7-Ph) = N[C@@H](Cc1c[nH]c2c(-c3ccccc3)cccc12)C(=O)O; Abu(4-yl) = O=C([C@H](CC[*:3])N[*:1])[*:2]; 2Nal = N[C@@H](Cc1ccc2ccccc2c1)C(=O)O; Trp(7-thienyl) = 7-thienyl-tryptophan; AEF = NCCOc1ccc(C[C@H](N)C(=O)O)cc1; Pen = CC(C)(S)[C@H](N)C(=O)O; αMeK = C[C@](N)(CCCCN)C(=O)O; Abu = CC[C@H](N)C(=O)O

As for `CC(=O)NCCCC[C@@H]1NC(=O)[C@H](Cc2c[nH]c3c(-c4cccc(C(F)(F)F)c4)cccc23)NC(=O)[C@H]([C@@H](C)O)NC(=O)[C@H](CC(N)=O)NC(=O)[C@@H](NC(C)=O)C(C)(C)SSC(C)(C)[C@@H](C(=O)N[C@@H](Cc2ccc(OCCN)cc2)C(=O)N[C@@H](Cc2ccc3ccccc3c2)C(=O)N[C@@](C)(CCCCN)C(=O)N[C@@H](CCCCNC(C)=O)C(=O)N[C@@H](CC(N)=O)C(=O)N[C@H](CCCCN)C(N)=O)NC1=O` [Peptide 9, Ac-[Pen]-N-T-[W(7-(3-CF3Ph))]-[Lys(Ac)]-[Pen]-Phe[4-(2-aminoethoxy)]-[2-Nal]-[a-MeLys]-[Lys(Ac)]-N-[(D)Lys)]-NH2] (Ac-[Pen]NT[X1]K(Ac)[Pen][AEF][2Nal][αMeK]K(Ac)N[dK]-NH2; disulfide 1-6), the half-life at 20 μM in data set [1], in data set [2] and in data set [3] was greater than 24 h in each case. The “SIF t1/2” value in data set [4] is 24 h. Moreover, 9.3 nM corresponded to half-maximal inhibition in data set [5] (IC50).
Take `CC(=O)NCCCC[C@@H]1NC(=O)[C@H](Cc2c[nH]c3c(-c4ccccc4)cccc23)NC(=O)[C@H]([C@@H](C)O)NC(=O)[C@H](CCC(N)=O)NC(=O)[C@@H](NC(C)=O)CCSC[C@@H](C(=O)N[C@@H](Cc2ccc(OCCN)cc2)C(=O)N[C@@H](Cc2ccc3ccccc3c2)C(=O)N[C@@](C)(CCCCN)C(=O)N[C@@H](CCCCNC(C)=O)C(=O)N[C@@H](CC(N)=O)C(=O)N[C@H](CC(C)C)C(N)=O)NC1=O` [Peptide 18, Ac-[Abu]-Q-T-[W(7-Ph)]-[Lys(Ac)]-[Cys]-Phe[4-(2-aminoethoxy)]-[2-Nal]-[a-MeLys]-[Lys(Ac)]-N-[(D)Leu]-NH2] (Ac-[Abu(4-yl)]QT[Trp(7-Ph)]K(Ac)C[AEF][2Nal][αMeK]K(Ac)N[dL]-NH2; thioether 1-6): the half-life at 20 μM in data set [1] is greater than 24 h; in data set [2] it was greater than 24 h; in data set [3], greater than 24 h; in data set [4] (pH 6.8, 100 fold dilution of standard SIF concentration, read-out: SIF t1/2 (converted)), 19.8 h. The same molecule showed an IC50 in data set [5] of 6.28 nM.
With `COc1cccc(-c2cccc3c(C[C@@H]4NC(=O)[C@H]([C@@H](C)O)NC(=O)[C@H](CC(N)=O)NC(=O)[C@@H](NC(C)=O)C(C)(C)SSC(C)(C)[C@@H](C(=O)N[C@@H](Cc5ccc(OCCN)cc5)C(=O)N[C@@H](Cc5ccc6ccccc6c5)C(=O)N[C@@](C)(CCCCN)C(=O)N[C@@H](CCCCNC(C)=O)C(=O)N[C@@H](CC(N)=O)C(=O)N[C@H](CCCCN)C(N)=O)NC(=O)[C@H](CCCCNC(C)=O)NC4=O)c[nH]c23)c1` [Peptide 8, Ac-[Pen]-N-T-[W(7-(3-OMePh))][Lys(Ac)]-[Pen]-Phe[4-(2-aminoethoxy)]-[2-Nal]-[a-MeLys]-[Lys(Ac)]-N-[(D)Lys)]-NH2] (Ac-[Pen]NT[X8]K(Ac)[Pen][AEF][2Nal][αMeK]K(Ac)N[dK]-NH2; disulfide 1-6), the half-life at 20 μM in data set [1], in data set [2] and in data set [3] was greater than 24 h in each case. For the same molecule, the “SIF t1/2” value in data set [4] is 24 h.
For `CC(=O)NCCCC[C@@H]1NC(=O)[C@H](Cc2c[nH]c3c(-c4cccc(OC(F)(F)F)c4)cccc23)NC(=O)[C@H]([C@@H](C)O)NC(=O)[C@H](CC(N)=O)NC(=O)[C@@H](NC(C)=O)C(C)(C)SSC(C)(C)[C@@H](C(=O)N[C@@H](Cc2ccc(OCCN)cc2)C(=O)N[C@@H](Cc2ccc3ccccc3c2)C(=O)N[C@@](C)(CCCCN)C(=O)N[C@@H](CCCCNC(C)=O)C(=O)N[C@@H](CC(N)=O)C(=O)N[C@H](CCCCN)C(N)=O)NC1=O` [Peptide 12, Ac-[Pen]-N-T-[W(7-(3-OCF3Ph))]-[Lys(Ac)]-[Pen]-Phe[4-(2-aminoethoxy)]-[2-Nal]-[a-MeLys]-[Lys(Ac)]-N-[(D)Lys)]-NH2] (Ac-[Pen]NT[X6]K(Ac)[Pen][AEF][2Nal][αMeK]K(Ac)N[dK]-NH2; disulfide 1-6), the half-life at 20 μM in data set [1] was greater than 24 h; in data set [2] it was greater than 6 h; in data set [3], greater than 24 h. Besides, the “SIF t1/2” value in data set [4] is 24 h.
Turning to Ac-[dR][Abu]QT[Trp(7-Ph)]K(Ac)C[AEF][2Nal][αMeK]K(Ac)N[dK]-NH2 (thioether 2-7) [Peptide No. 5 (SEQ ID No. 5)], the “pStat3 HTRF IC50 (DB cells IL23R pSTAT3 cell assay, 0.5 nM IL-23)” value in data set [6] was found to be 8.53 nM.
In the case of Ac-[Pen]NT[Trp(7-thienyl)]Q[Pen][AEF][2Nal][αMeK]K(Ac)N[dK]-NH2 (disulfide 1-6) [Peptide No. 2 (SEQ ID No. 2)], in data set [6], the “pStat3 HTRF IC50 (DB cells IL23R pSTAT3 cell assay, 0.5 nM IL-23)” value stood at 1.21 nM.
Same read-out and setting: under Ac-[dR][Abu]QT[Trp(7-Ph)]K(Ac)C[AEF][2Nal][αMeK]K(Ac)N-NH2 (thioether 2-7) [Peptide No. 4 (SEQ ID No. 4)] stands 49.4 nM; under Ac-[Abu]QT[Trp(7-Ph)]K(Ac)C[AEF][2Nal][αMeK]K(Ac)N[dK]-NH2 (thioether 1-6) [Peptide No. 19 (SEQ ID No. 19)], 2.57 nM; under Ac-[dR][Abu]QT[Trp(7-Ph)]K(Ac)C[AEF][2Nal][αMeK]K(Ac)N[dL]-NH2 (thioether 2-7) [Peptide No. 3 (SEQ ID No. 3)], 9.42 nM.
